The structures appear in SMILES notation.

The target in this test is Lysine-specific histone demethylase 1A (Homo sapiens, UniProt O60341). Put plainly: Biochemical Analysis of LSD1 Histone Demethylase Inhibitor. As for the experimental part: The biochemical inhibition activity of the synthesized compounds on LSD1 was measured. The activity measurement was performed using LSD1 fluorescence analysis kit (available from BPS Bioscience Co., Ltd., Catalog No: 50106). This analysis kit is designed to measure activity of LSD1 enzyme. H2O2 generated upon demethylation of Lys4 moiety of histone H3 by LSD1 is reacted with HRP/Amplex Red reagent to form fluorescent Resorufin, which is measured by this kit, thereby confirming demethylation.

A word on the IC50: it is the concentration at which inhibition is half-maximal. In the case of `CCN(CC)c1ccc(-n2c(-c3ccc(C#N)c(F)c3)nc3c(N4CCC[C@@H](N)C4)ccnc32)cc1` [US12479845, Example 21], the IC50 came to 27 nM.

Source of the values: BindingDB's records for patent US12479845 (Hanmi Pharm. Co., 2025).
